For the series the following is noted: mouse, in vivo, iv.

A value given as a limit tells only on which side of the number the result lay.

Consider Ac-WDLIQLIVSDGSDLIQLIVSD-NH2 [12B], for which the half-life in blood is < 10 min.

The record behind these values is paper PMC7275043 (Nature Communications, 2020).
